# Assays:
# adenylyl cyclase [1] = test: FACS forskolin response of T-REx-CRE-bla-CHO-K1 pool; format: cell-based, Chinese hamster; settings: T-REx-CRE-bla-CHO-K1 selected pool
# Source text: (§1) The transfected and antibiotic selected T-REx™-CRE-bla-CHO-K1 and T-REx™-GPR23-CRE-bla-CHO-K1 clones were sorted for their responsiveness to forskolin. Forskolin activates adenylyl cyclase and results in increased intracellular cAMP concentrations which in turn lead to increased production of beta-lactamase from the CRE response element. Forskolin response of the T-REx™-CRE-bla-CHO-K1 and T-REx™-GPR23-CRE-bla-CHO-K1 pools were determine using FACS. […] In addition, there was an increase in the constitutively active cells in the human GPR23 containing cells as compared to the parental as indicated by the un-stimulated blue levels. The responsive clones were collected at one cell per well in 96 well tissue culture plates then expanded and tested for there responsiveness to LPA.
# adenylyl cyclase [2] = test: FACS forskolin response of T-REx-GPR23-CRE-bla-CHO-K1 pools; format: cell-based, Chinese hamster
# Source text: as §1
# [3] = test system: T-REx™-G2A-NFAT-bla Freestyle™293F cells; test: T-REx G2A NFAT-bla Freestyle 293F beta-lactamase reporter assay (inducer dose response)
# Experimental: (§2) In order to control the levels of G2A expression, G2A was placed under the control of an inducible promoter using Invitrogen's T-REx™ system. To again assess feasibility, pcDNA 5 G2A/TO was transiently transfected into CRE-bla Freestyle™ and NFAT-bla Freestyle™ cell lines stably expressing the T-REx™ Tet repressor plasmid (pcDNA6/TR; e.g., catalog# V1025-20, Invitrogen, Carlsbad, Calif.). The transfected cells were then treated with 10 ug/mL, 1 ug/mL, or 100 ng/mL tetracycline for 24 h to induce G2A expression. […] Stable pools of cells were created in both the TR CRE-bla and TR NFAT-bla Freestyle™293F backgrounds.
# (§3) Stimulation Kinetics—Selected pools of both CRE-bla and NFAT-bla T-REx™ G2A Freestyle™ cells were stimulated with tetracycline for 3, 4, 5, or 24 h and loaded for 2 h with 1 μM LiveBLAzer™-FRET B/G substrate.
# To improve the balance between tetracycline-induced signaling and cell death by testing shorter induction times, lower tetracycline concentrations and altered culture conditions were utilized to promote cell health. A 16 h tetracycline stimulation time was attempted on the pools from the first sort. Cells were plated at 10,000 cells/well 24 hours prior to assay in DMEM+10% dFBS and incubated at 37° C./5% CO2 until time of assay. The cells were stimulated for 16 hours (e.g., overnight) with a dilution series of the tetracycline. Following stimulation, the cells were loaded for 2 hours at room temperature in the dark with LiveBLAzer™-FRET B/G loading solution containing 1 μM substrate. This assay was done in Poly-D-Lysine coated plates.
# Since G2A has no known agonists, doxycycline and tetracycline were compared as inducers of the assay. An antibiotic selected pool of cells were plated at 10,000 cells/well 24 hours prior to assay in DMEM+10% dFBS and incubated at 37° C./5% CO2 until time of assay. The cells were stimulated with a dilution series of each compound for 16 hours at 37° C./5% CO2 and loaded for 2 hours at room temperature in the dark with LiveBLAzer™-FRET B/G loading solution containing 1 μM substrate.
# Cell Density/well—The influence of cell-plating density on assay performance was tested to find the density giving the best response and Z′ while maintaining the expected pharmacology. Cells were plated 24 hours prior to the assay at the densities indicated in FIG. 14 in DMEM+10% dFBS and incubated at 37° C./5% CO2 until the time of assay. The cells were stimulated for 16 hours at 37° C./5% CO2 with a dilution series of the doxycycline. After incubation, the cells were loaded for 2 hours at room temperature in the dark with LiveBLAzer™-FRET B/G loading solution containing 1 μM substrate.
# DMSO Tolerance—Tests were performed related to assay performance as a function of DMSO concentration to determine the robustness of the assay to the range of DMSO challenge routinely encountered during high-throughput screening. Dose response curves were performed in the presence of 0%, 0.25%, 0.5%, or 1% DMSO. Cells were plated at 10,000 cells/well 24 hours prior to assay in DMEM+10% dFBS and incubated at 37° C./5% CO2 until time of assay. After incubation, DMSO was added to the wells to final concentrations of 0%, 0.25%, 0.5% and 1% DMSO. The cells were stimulated for 16 hours with a dilution series of the doxycycline. Following stimulation, the cells were loaded for 2 hours at room temperature in the dark with LiveBLAzer™-FRET B/G loading solution containing 1 μM substrate.
# The substrate loading times were varied to find the time for an optimal assay performance. Cells were plated at 10,000 cells/well 24 hours prior to assay in DMEM+10% dFBS and incubated at 37° C./5% CO2 until time of assay. After incubation, DMSO was added to the wells to final concentration of 0.5%.
# [4] = test system: T-REx™ G2A CRE-bla Freestyle™ 293F cells; settings: selected pool; 24 h tetracycline stimulation
# Experimental: as §2, §3
# [5] = test system: T-REx™-GPR23-CRE-bla-CHO-K1 clone H6-E2; test: T-REx-GPR23-CRE-bla-CHO-K1 clone H6-E2 beta-lactamase reporter assay (induction); format: cell-based, Chinese hamster; settings: Clone H6-E2; 1 μg/ml tetracycline, 16 hrs
# Experimental: Six clones selected for further testing were expanded and retested for their inducible GPR23 specific activity. The clones were plated at 25,000 cells per well in a 96 well black walled clear bottom tissue culture assay plate. The plates were than placed at 37° C. 5% CO2 for 24 hrs to allow the cells to attach to the assay plate. The complete media was then removed from the plate and replaced with assay media (DMEM+0.1% BSA) containing 100 ng/ml pertussis toxin with or without 1 μg/ml tetracycline. The plates were placed at 37° C. 5% CO2 for 16 hrs to allow the induced expression of the GPR23 receptor. The cells were then loaded with LiveBLAzer™-FRET B/G substrate (2 μM) containing solution D for 2 hrs. To determine the optimal cell density for this assay the cells were plated at 2,500, 5,000, 10,000, and 20,000 cells per well in a 384 well black walled clear bottom tissue culture assay plate in complete media (DMEM+10% FBS). The plates were than placed at 37° C. 5% CO2 for 24 hrs to allow the cells to attach to the assay plate. The complete media was then removed from the plate and replaced with assay media (DMEM+0.1% BSA) containing 100 ng/ml pertussis toxin and a four fold dilution series of doxycycline starting at 1 μg/ml. The plates were placed at 37° C./5% CO2 for 16 hrs to allow the induced expression of the GPR23 receptor. The cells were then loaded with LiveBLAzer™-FRET B/G substrate (2 μM) containing solution D for 2 hrs. The cells were plated at 20,000 cells per well in a 384 well black walled clear bottom tissue culture assay plate in complete media (DMEM+10% FBS). The plates were then placed at 37° C. 5% CO2 for 6 hrs to allow the cells to attach to the assay plate. The complete media was then removed from the plate and replaced with assay media (DMEM+0.1% BSA) containing 100 ng/ml pertussis toxin, 0%, 0.25%, 0.5%, or 1.0% DMSO, and a three fold dilution series of doxycycline starting at 1 μg/ml. The plates were placed at 37° C./5% CO2 for 16 hrs to allow the induced expression of the GPR23 receptor. The cells were then loaded with LiveBLAzer™-FRET B/G substrate (2 μM) containing solution D for 2 hrs. The cells were plated at 20,000 cells per well in a 384 well black walled clear bottom tissue culture assay plate in complete media (DMEM+10% FBS). The plates were than placed at 37° C. 5% CO2 for 6 hrs to allow the cells to attach to the assay plate. The complete media was then removed from the plate and replaced with assay media (DMEM+0.1% BSA) containing 100 ng/ml pertussis toxin, 0.5% DMSO, and a three fold dilution series of doxycycline starting at 1 μg/ml. The plates were placed at 37° C. 5% CO2 for 16, 20 or 24 hrs to allow the induced expression of the GPR23 receptor. The cells were then loaded with LiveBLAzer™-FRET B/G substrate (2 μM) containing solution D for 2 hrs. Dose response of T-REx-GPR23-CRE-bla CHO-K1 cells to Doxycycline. T-REx-GPR23-CRE-bla CHO-K1 cells were plated in Growth Media (+) and allowed to attach to the tissue culture plate for 6 hrs. They were then induced for GPR23 expression overnight with doxycycline for 16 hrs in Assay Media. Cells were then loaded with LiveBLAzer™-FRET B/G Substrate (CCF4-AM) for 2 hours. Fluorescence emission values at 460 nm and 530 nm were obtained using a standard florescence plate reader and the Blue/Green Emission Ratios were plotted against the indicated concentrations of doxycycline (FIG. 40).
SMILES,"increase in the percentage of cells in the ""Blue"" (responding) gate, stimulated verses un-stimulated (adenylyl cyclase [1]) [%]","increase in the ""Blue"" gate, stimulated verses un-stimulated (adenylyl cyclase [2]; T-REx-GPR23-CRE-bla-CHO-K1 E1) [%]","increase in the ""Blue"" gate, stimulated verses un-stimulated (adenylyl cyclase [2]; T-REx-GPR23-CRE-bla-CHO-K1 H6) [%]","EC50 ([3]; Homo sapiens, FreeStyle 293-F, antibiotic selected pool, 10,000 cells/well, 16 h stimulation, 2 h loading) [µg/mL]","RR (Max) ([3]; antibiotic selected pool, 10,000 cells/well, 16 h stimulation)","cell death ([3]; selected pool, 24 h tetracycline stimulation)",cell death [4],inducible response (induced versus uninduced) [5]
C=C[C@@]1(C)CC(=O)[C@]2(O)[C@@]3(C)[C@@H](O)CCC(C)(C)[C@@H]3[C@H](O)[C@H](OC(C)=O)[C@@]2(C)O1 [Forskolin],~10.7,~20,~21.1,,,,,
CN(C)[C@@H]1C(O)=C(C(N)=O)C(=O)[C@@]2(O)C(O)=C3C(=O)c4c(O)cccc4[C@@](C)(O)[C@H]3C[C@@H]12 [Tetracycline],,,,0.046,3.1,substantial cell death,substantial cell death,about 9.2 fold

# Source: patent US20070218456A1, “CELLULAR ASSAYS FOR SIGNALING RECEPTORS” (INVITROGEN CORPORATION, priority 2006, published 2007)
